# In patent publication US12667567B2, “Method of preventing blast-induced loss of cochlear and vestibular hair cells and auditory spiral ganglion neurons” (Therapeutic Vision, Inc., priority 2024, dated 2026):
# Where “and” joins values, the source holds several entries; their conditions need not be identical. Equal entries are not always repeated. Entries after “also recorded” stand apart in the source; their conditions may differ.
# Key:
# [1] = tested on: spiral ganglion neurons (SGN); assay: Blast-induced loss of spiral ganglion neurons in Rosenthal's canal; format: in vivo, rat; conditions: for mean number of SGN per section: middle of basal turn, ~25 kHz
# Protocol: (§1) Blast wave exposure. All rats were exposed to 6 blasts presented once every 5 minutes using equipment and procedures similar to those previously described. (See Manohar, S., et al., Blast-induced hearing loss suppresses hippocampal neurogenesis and disrupts long term spatial memory. Hear Res, 2020. 395: p. 108022; Stachowiak, M. K., et al., Neurogenesis and Oligodendrogenesis in a Mouse Model of Blast-Induced Traumatic Brain Injury. Neurology and Neurobiology, 2020: p. 1-14; and Newman, A. J., et al., Low-cost blast wave generator for studies of hearing loss and brain injury: blast wave effects in closed spaces. J Neurosci Methods, 2015. 242: p. 82-92.) Each rat was anesthetized with an intraperitoneal injection of ketamine (50 mg/kg) and xylazine (6 mg/kg) and stable anesthesia was maintained with supplementary half-doses of anesthetics as needed to maintain a stable anesthetic state. Each anesthetized rat was placed in a wire-mesh cage 5 cm with the snout of the rat facing the front of the blast tube opening. The average blast peak pressure level was 186 dB peak SPL (±0.8 dB, SEM, ~39.9 kPa). The intensity was selected based on our prior study in which we found no evidence of tympanic membrane or ossicular damage in rats exposed at 188 dB pSPL (Newman, A. J. et al.), consistent with an earlier report. (Roberto, M., R. P. Hamernik, and G. A. Turrentine, Damage of the auditory system associated with acute blast trauma. Ann Otol Rhinol Laryngol Suppl, 1989. 140: p. 23-34)
# (§2) Experimental groups. The rats were divided into four groups (n=6/group): (1) Blast alone (B), (2) Blast plus earplugs (BEP), (3) Blast plus HK-2 (BHK-2) and (4) Blast plus earplugs plus HK-2 (BEPHK-2). All rats had free access to water and standard lab chow except for the BHK-2 and BEPHK-2 groups that also received HK-2 as noted below.
# (§3) HK-2 synthesis and administration. HK-2 was synthesized and evaluated for purity (>99%) as described previously. (Kawada, H. and P. F. Kador, Orally Bioavailable Metal Chelators and Radical Scavengers: Multifunctional Antioxidants for the Coadjutant Treatment of Neurodegenerative Diseases. J Med Chem, 2015. 58(22): p. 8796-805; U.S. Pat. No. 8,877,766 B2) Rats in the BHK-2 group and BEPHK-2 group were fed the same standard laboratory rat chow as the other two groups, however, the chow had been treated with HK-2 as described previously. […] Based on the rat's daily food consumption, measured every 2 days together with body weight, the average oral consumption of HK-2 was ~50 mg/kg/day. […]
# [2] = tested on: vestibular hair cells in the utricle; assay: Vestibular hair cell density in macula of the utricle after blast; format: in vivo, rat
# Protocol: as §1, §2, §3
# [3] = tested on: vestibular hair cells in the crista of the ampulla; assay: Vestibular hair cell density in crista ampullae of semicircular canals after blast; format: in vivo, rat
# Protocol: as §1, with “The intensity was selected based on our prior study in which we found no evidence of tympanic membrane or ossicular damage in rats exposed at 188 dB pSPL (Newman, A. J. et al.), consistent with an earlier report. (Roberto, M., R. P. Hamernik, and G. A. Turrentine, Damage of the auditory system associated with acute blast trauma. Ann Otol Rhinol Laryngol Suppl, 1989. 140: p. 23-34)” left out
# HK-2 synthesis and administration. HK-2 was synthesized and evaluated for purity (>99%) as described previously. […] Based on the rat's daily food consumption, measured every 2 days together with body weight, the average oral consumption of HK-2 was ~50 mg/kg/day. […]
# inner hair cells (IHC) = assay: Blast-induced inner hair cell loss, cochleogram; format: in vivo, rat
# Protocol: as §1, §2
# (§4) HK-2 synthesis and administration. HK-2 was synthesized and evaluated for purity (>99%) as described previously. (Kawada, H. and P. F. Kador, Orally Bioavailable Metal Chelators and Radical Scavengers: Multifunctional Antioxidants for the Coadjutant Treatment of Neurodegenerative Diseases. J Med Chem, 2015. 58(22): p. 8796-805; U.S. Pat. No. 8,877,766 B2) Rats in the BHK-2 group and BEPHK-2 group were fed the same standard laboratory rat chow as the other two groups, however, the chow had been treated with HK-2 as described previously. (Chen, G. D., et al.; Manohar, S., et al., Combined antioxidants and anti-inflammatory therapies fail to attenuate the early and late phases of cyclodextrin-induced cochlear damage and hearing loss. Hear Res, 2022. 414: p. 108409.) HK-2 treated food was administered to rats starting 7-days prior to the blast wave exposure and continuing for 30-days following exposure. Based on the rat's daily food consumption, measured every 2 days together with body weight, the average oral consumption of HK-2 was ~50 mg/kg/day. (Id.)
# (§5) Tissue preparation. Approximately 60-days after the blast wave exposure, the rats from all four groups were deeply anesthetized with ketamine (50 mg/kg, i.p.) and xylazine (6 mg/kg, i.p.) and decapitated. The temporal bones were quickly removed. Under a dissection microscope, openings were made in the cochlear apex, round window, and the oval window. […]
# outer hair cells (OHC) = assay: Blast-induced outer hair cell loss, cochleogram; format: in vivo, rat
# Protocol: as §1, §2, §4, §5
# [4] = tested on: noise-induced hearing loss and outer hair cell loss; conditions: 95 dB SPL octave band noise, 8 h/d for 21 days; HK-2 before, during and after the exposure; cited from earlier work
# [5] = tested on: vestibular hair cells in the saccule; assay: Vestibular hair cell density in macula of the saccule after blast; format: in vivo, rat
# Protocol: as §1, §2, §4, §5
# [6] = tested on: auditory nerve fibers (ANF); assay: Blast-induced loss of auditory nerve fibers in habenula perforata; format: in vivo, rat; conditions: for mean number of ANF/habenula perforata: middle of basal turn, ~25 kHz
# Protocol: as §1, §2, §3
# [7] = BEPHK-2 group (earplugs plus HK-2)
# [8] = HK-2 oral 50 mg/kg/d, 60 d post-exposure, 50 mg/kg/day
# [9] = BHK-2 group, no blast-induced loss in this region
# [10] = BHK-2 group, 6 blasts 186 dB peak SPL, HK-2 oral 50 mg/kg/d from 7 d before to 30 d after blast, 60 d post-exposure, 50 mg/kg/day
smiles,measurement,setting,value
"O=C1CCC(=O)N1c1ncc(O)cn1 [HK-2, 1-(5-hydroxypyrimidin-2-yl) pyrrolidine-2,5-dione]",mean number of SGN per section,[1]; [7],41.8 SGN per section
same,mean number of SGN per section,"[1]; BHK-2 group, B group ~9",42.3 SGN per section
same,protection against blast-induced SGN loss (in words),[1]; [8],completely prevented; also recorded: significant protection
same,increase of SGN versus blast alone,"[1]; HK-2 treatment, 25 kHz region",~ 3.7 fold
same,"mean hair cell density, marginal region of the macula of the utricle",[2]; [7],122.8 /0.0108 mm^2
same,"mean hair cell density, striola region of the macula of the utricle",[2]; [7],111.3 /0.0108 mm^2
same,"mean hair cell density, marginal region of the macula of the utricle",[2]; [9],122.7 /0.0108 mm^2
same,"mean hair cell density, striola region of the macula of the utricle",[2]; [9],111.0 /0.0108 mm^2
same,"mean hair cell density, crista of the ampulla of the three semicircular canals",[3]; [7],122.8 /0.0108 mm^2
same,"mean hair cell density, crista of the ampulla of the three semicircular canals",[3]; [9],121.8 /0.0108 mm^2
same,IHC loss,"inner hair cells (IHC); BEPHK-2 group (earplugs plus HK-2; range stated jointly with BEP group), base of the cochlea",14-19%
same,reduction of total IHC loss compared to B group,inner hair cells (IHC); [10],57% and ~ 57.3% and ~ 57%
same,mean IHC loss,"inner hair cells (IHC); BHK-2 group, middle of the cochlea",~ 20
same,mean IHC loss,"inner hair cells (IHC); BHK-2 group, near the apex",0%
same,mean IHC loss,"inner hair cells (IHC); BHK-2 group, near the base of the cochlea",~ 67%
same,OHC loss less than in BEP group,"outer hair cells (OHC); BEPHK-2 group (earplugs plus HK-2), extreme base",about 10%
same,reduction of total OHC loss compared to B group,outer hair cells (OHC); [10],67% and ~ 67%
same,mean OHC loss,"outer hair cells (OHC); BHK-2 group, 10% location (distance from apex)",10%
same,mean OHC loss,"outer hair cells (OHC); BHK-2 group, 70% location (distance from apex)",~ 39%
same,mean OHC loss,"outer hair cells (OHC); BHK-2 group, high-frequency base of the cochlea",~ 76%
same,hearing loss and hair cell loss after noise exposure (in words),[4],significantly reduced in a dose-dependent manner
same,"mean hair cell density, marginal region of the saccule",[5]; [7],123.0 /0.0108 mm^2
same,"mean vestibular hair cell density, striola of the saccule",[5]; [7],112.0 hair cell/0.0108 mm^2
same,"mean vestibular hair cell density, striola of the saccule","[5]; BHK-2 group, B group 71.83",102.7 hair cell/0.0108 mm^2
same,"mean hair cell density, marginal region of the saccule",[5]; [9],122.2 /0.0108 mm^2
same,protection against blast-induced saccule (striola) hair cell loss (in words),[5]; [8],completely prevented; also recorded: restored hair cell densities to normal levels; also recorded: significant protection
same,mean number of ANF/habenula perforata,[6]; [7],82.8 ANF/habenula perforata
same,mean number of ANF/habenula perforata,"[6]; BHK-2 group, B group ~9.2",84.2 ANF/habenula perforata
same,protection against blast-induced ANF loss (in words),[6]; [8],completely prevented; also recorded: complete protection
same,increase of ANF versus blast alone,"[6]; HK-2 treatment, 25 kHz region",~ 8 fold
